Results as given in patent publication US10463040B2, “Composition comprising a pesticide and isononanoic acid N,N-dimethyl amide” (BASF SE, priority 2015, dated 2019).

Assays:
[1] = Emulsion stability: 5% of the emulsion concentrate diluted in CIPAC water D, ml cream after 1, 2, 4 and 24 h; assay type: physicochemical; design: key to Emulsion 5% in Cipac D 2 h / Emulsion 5% in Cipac D 4 h / Emulsion 5% in Cipac D 1 h / Emulsion 5% in Cipac D 24 h: stable = no cream; conditions: for Emulsion 5% in Cipac D 1 h / Emulsion 5% in Cipac D 2 h / Emulsion 5% in Cipac D 4 h / Emulsion 5% in Cipac D 24 h: amide 63%; for Stability of the emulsion comprising the amide: summary in words of Example 4
Description: Stable in the context of the present invention means that no cream has formed within 24 hours after mixing components of a formulation. To measure the stability, 5% of the formulation (emulsion concentrate) is diluted in CIPAC water D in a 100 ml cylinder. The resulting oil-in-water emulsion is assessed after 1, 2, 4 and 24 hours.

wheat and black bindweed = test: Phytotoxicity laboratory test: plants treated with 2 g of a 1% emulsion, evaluated visually after 3 days; assay type: in vivo
Description: No phytotoxicity in the context of the present invention means that in comparison to untreated plants, 0% of the treated plants have plant injury according to the phytotoxicity method described below.
Phytotoxicity in accordance with the present invention is determined by an assay where e.g. wheat (grasses) or black bindweed (broad leave), are treated with 2 g of a 1% Emulsion described below and are visually evaluated after 3 days of incubation. Plant injury covers the assessment of leave condition as well as resistance to lodging in case of grasses.
The emulsion is prepared by mixing 1% of concentrate with water. The concentrate consists of 7.5% of castor oil ethoxylate (30 EO), 2.5% Ca-Dodecylbenzolsulfonate and 90% carboxylic acid amide. The experimental period lasts for 3 days. During this time, the experimental plants receive optimum watering, with nutrients being supplied via the water used for watering.
The phytotoxicity is evaluated by awarding scores to the treated plants in comparison to untreated plants, i.e. treated with water only. The evaluation scale ranges from 0% to 100% phytotoxicity. The evaluation is done by visual examination. 0% phytotoxicity means that there are no differences between treated and untreated plants. […]
Plants, i.e. wheat and black bindweed, were treated with 2 g of a 1% Emulsion described below and were visually evaluated after 3 days of incubation. […]

[2] = Determination of the max. solubility of fungicide/herbicide in the carboxylic acid amide (quantitative 1H-NMR of supernatant); assay type: physicochemical
Description: The respective fungicide/herbicide was dissolved in the solvent of interest so that a supersaturated solution was obtained. The deposit was filtered off. The concentration of the fungicide/herbicide in the supernatant was determined via quantitative 1H-NMR spectroscopy.

[3] = Formulation: Oxyfluorfen 25%, Ca Dodecylbenzolsulfonat 2%, Castor oil ethoxylate (35 EO) 10%
[4] = Formulation: Oxyfluorfen 25%, Castor oil ethoxylate (35 EO) 12%
[5] = Formulation: Tebuconazol 25%, Ca Dodecylbenzolsulfonat 2%, Castor oil ethoxylate (35 EO) 10%
[6] = Formulation: Tebuconazol 25%, Castor oil ethoxylate (35 EO) 12%

SMILES	Emulsion 5% in Cipac D 1 h [1, 3]	Emulsion 5% in Cipac D 2 h [1, 3]	Emulsion 5% in Cipac D 4 h [1, 3]	Emulsion 5% in Cipac D 24 h [1, 3] [ml cream]	Emulsion 5% in Cipac D 1 h [1, 4]	Emulsion 5% in Cipac D 2 h [1, 4]	Emulsion 5% in Cipac D 4 h [1, 4]	Emulsion 5% in Cipac D 24 h [1, 4]	Emulsion 5% in Cipac D 1 h [1, 5]	Emulsion 5% in Cipac D 2 h [1, 5]	Emulsion 5% in Cipac D 4 h [1, 5]	Emulsion 5% in Cipac D 24 h [1, 5] [ml cream]	Emulsion 5% in Cipac D 1 h [1, 6]	Emulsion 5% in Cipac D 2 h [1, 6]	Emulsion 5% in Cipac D 4 h [1, 6] [ml cream]	Emulsion 5% in Cipac D 24 h [1, 6] [ml cream]	Stability of the emulsion comprising the amide [1]	other results
CC(CC(=O)N(C)C)CC(C)(C)C (stereo not drawn) [Isononanoic acid N,N-dimethylamide, isononanoic acid N,N-dimethylamide]	stable	stable	stable	0.5	stable	stable	stable	stable	stable	stable	stable	0.5	stable	stable	0.5	0.5	stable	Phytotoxicity (wheat and black bindweed; 3 days after treatment, 1% emulsion of concentrate (7.5% castor oil ethoxylate (30 EO), 2.5% Ca-Dodecylbenzolsulfonate, 90% amide), wheat and black bindweed): 0 (0 means no damage); Phytotoxic effect on plants (wheat and black bindweed; statement in words in the description): no phytotoxic effect
CCCCCCCCC(=O)N(C)C [n-C9 N,N-dimethylamide]	0.5 ml cream	3 ml cream	4.0 ml cream	6	0.5 ml cream	1 ml cream	4.0 ml cream	6 ml cream	3.0 ml cream	8 ml cream	8.0 ml cream	8	stable	2 ml cream	3.0	3	unstable	Solubility [%] Oxyfluorfen [2]: 34%; Solubility [%] Pyraclostrobin [2]: 46%; Solubility [%] Tebuconazole [2]: 42%
